Results on two molecules are retold here after patent US6780608B1, “Human type 3 ryanodine receptor protein and DNA molecules coding therefor” (priority 1997, dated 2004).

“Also recorded” adds a separate entry of the source.

One assay relates to H4 cells. Briefly: Intracellular calcium (aequorin luminescence) in H4 cells. Conditions: H4 neuroglyoma cells. It counts as cell-based, human. Here is the method:
(§1) The luminescence was determined using the method recently published (Maeda, A. et al., Anal. Biochem. 242, (1996), 58-66). To do this the cells (1×10^5 cells/vessel) were transferred into the solution of the calcium assay having the following composition (mM): 140 NaCl, 5 KCl, 1.5 MgCl2, 2.5 CaCl2, 5 glucose and 10 HEPES, pH 7.4 adjusted using NaOH, including […] of coelenterazine, the intermediate substrate of aequorine, and incubated for 6 hours at 37° C. The system for measuring luminescence consisted of the spectrofluorometer CAF-110 (Jasco) (Hakamata Y. et al., FEBS Lett. 352, (1994), 206-210), which is connected to a luminescence unit PL-03 (Jasco).
(§2) The total amount of aequorine activity was measured, after permeabilisation of the cells with digitonin, in a final concentration of […].

The test system of assay [1] is non-injected dyspedic myotubes. Briefly: Intracellular calcium signal (fluo-3) in non-injected dyspedic myotubes. It counts as cell-based, mice. Conditions: 1 mM caffeine, n=0 out of 20 reacted. From the text: (§3) The cDNA insert was constructed from the following fragments: EcoRI(vector)/MroI(1232) obtained from IhBRR22, MroI(1232)/HindIII(2956) from IhBRR61, HindIII(2956)/BcII(3506) from IhBRR501, BcII(3506)/PmaCI(4750) from IhBRR51, PmaCI(4750)/PstI(7339) from IhBRR53, PstI(7339)/ClaI(9559) from IhBRR411, ClaI(9559)/SpeI(10569) from IhBRR79, SpeI(10569)/ApaI(11451) from IhBRR407, ApaI(11451)/EcoRI(11815) from IhBRR502, EcoRI(11815)/EcoRI(14861) from IhBRR91. The expression plasmid of the chimeric ryanodine receptor cDNA from human RyR3 and rabbit RyR2 was constructed as follows: the SalI(vector)/PmaCI(5038) fragment was rabbit RyR2 cDNA (Nakai, J. et al. FEBS Lett. 271 (1990), 169-177) and the PmaCI(4750)/NotI(vector) fragment from human RyR3-cDNA was ligated into the SalI/NotI cutting site of pCI-neo. Cultures of myotubes from RyR1-deficient (dyspedic) mice and cDNA injection are already known (Nakai, J. et al., Nature 380, (1996), 72-75). Changes in fluorescence (dimensionless random units) were measured after loading the myotubes with fluo-3 AM (Garcia, J., and Beam, K. G., J. Gen. Physiol. 103, (1994), 107-123). […] The washing solution used was normal Nager-Ringer solution of the following composition (mM): 145 NaCl, 5 KCl, 2 CaCl2, 1 MgCl2, 10 HEPES, pH 7.4 adjusted using NaOH. The temperature was 20-22° C.

Assay [2] relates to chimeric RyR from rabbit RyR2 and human RyR3. Briefly: Intracellular calcium signal (fluo-3) in dyspedic myotubes injected with chimeric human RyR3 cDNA. As to conditions: 1 mM caffeine, local injection; dyspedic myotubes expressing chimeric human RyR3; n=5 out of 20 reacted. It counts as cell-based.
Source text: as §3

For another assay, the system named is U373 cells. The assay is described as follows: Intracellular calcium (aequorin luminescence) in U373 cells. The assay is classed as cell-based, human. As to conditions: for increase in intracellular calcium after addition of ryanodine: ryanodine 100 mM as printed, U373 cells, n=2 out of 4 react, 2 out of 4 do not react. Here is the method: as §1, §2

On to `Cn1c(=O)c2c(ncn2C)n(C)c1=O` [caffeine], for which the “increase in calcium after addition of caffeine” value in the assay with H4 cells (caffeine final concentration 10 mM) was “not to caffeine”. The “intracellular calcium signal as a reaction to caffeine” value in assay [1] is listed as “do not react; also recorded: no reaction whatsoever”; in assay [2], “reacts”. Moreover, the “increase in intracellular calcium after addition of caffeine” value with U373 cells (caffeine final concentration 10 mM, U373 astrocytoma cells, n=7, listed as Caffeine) is listed as “no effect”.
Consider ryanodine, for which the “increase in calcium after addition of ryanodine” value with H4 cells (ryanodine 100 mM [sic]) is “reacted”. For the same molecule, the “increase in intracellular calcium after addition of ryanodine” value in the assay with U373 cells was “reacted”; with U373 cells (listed as Ryanodine), “triggers temporary calcium fluctuations”.
